Results on three compounds are retold here after US11066399B2, “Ferroportin inhibitors” (Vifor (International) AG, priority 2015, dated 2021).

For assay [1], the system named is Hbb th3/+ mice. As to the kind of experiment: Improvement of anemia, ineffective erythropoiesis and iron overload in a mouse model of β-thalassemia intermedia. Type of assay: in vivo. The settings on record: % change to vehicle; for Decrease in serum iron: dosed for 3 h. How it is done: The efficacy of Fpn inhibitors was investigated using a mouse model of transfusion-independent β-thalassemia. Mice with heterozygous deletion of β1 and β2 globin genes (called Hbb th3/+ mice) develop transfusion-independent anemia, ineffective erythropoiesis, splenomegaly and secondary iron overload in spleen, liver and kidneys. […] Hbb th3/+ mice were dosed twice daily with either compound at 20 or 60 mg/kg or with methylcellulose (10 ml/kg, Sigma, Cat. 274429) as a vehicle. Between both doses mice had access to drinking water supplemented with 1 mM ^58Fe(II)-sulfate (Vifor Pharma, Batch No. ROR 3096) and 10 mM ascorbic acid (Sigma, Cat. 795437) for 6 h. […] Water without ^58Fe(II)-Sulfate and ascorbic acid was provided during the remaining 18 h. Dosing of Fpn inhibitors or vehicle followed by exposure to iron-containing water was repeated for 20 to 46 days in individual experiments.
Additional hematologic parameters were measured in terminal blood using automated blood cell analyzer.
The inefficient erythropoiesis of Hbb th3/+ mice causes excessive proliferation of erythroid precursors in spleen, leading to splenomegaly.
Erythroferrone is produced by erythrocyte precursors proliferating massively in spleens of Hbb th3/+ mice as a consequence of extramedullar erythropoiesis.
Increased iron demand due to inefficient erythropoiesis and chronically low hepcidin levels in patients with thalassemia causes organ iron loading and associated morbidities, such as hepatocellular carcinoma and heart failure (Rivella S. Haematologica, 2015). Hbb th3/+ mice absorb excessive amounts of iron as a consequence of inadequately low hepcidin levels relative to the high iron content in liver, spleen and kidney and increased ferroportin expression in duodenum (Gardenghi S., Blood, 2007).
Additionally, reactive oxygen species (ROS) were detected in bone marrow cells using a fluorescent indicator, CM-H2DCFDA (Thermo Fisher Scientific, Cat. C6827).
Table 10. Efficacy of Ferroportin inhibitors in a mouse model of thalassemia intermedia (Hbb th3/+ mice). […] Data are expressed as difference to the vehicle control group for hemoglobin and as % change to the vehicle control group for all other parameter shown

The next assay relates to b2m−/− mice. As to the kind of experiment: Correction of hyperferremia in beta2-microglobulin deficient mice. The format is in vivo, mouse. The note with it: male b2m−/− mice, Dose 20 mg/kg oral, blood collected 1 (#) hour after dosing. As for the experimental part: Female and male homozygous b2m−/− mice were supplied from Jackson Laboratories (B6.129P2-B2mtm1Unc/J, Stock Number: 002087) at age of 6 to 7 weeks and fed standard diet (Harlan Provimi Kliba 3436) ad libitum. Age and gender matched WT C57BL/6 mice are supplied by Charles River. To study the acute effects of ferroportin (Fpn) inhibitors in iron overload b2m−/− mice were treated with compounds or the corresponding amount of vehicle at a volume of 10 ml/kg body weight. Fpn inhibitor compounds were formulated in 0.5% methylcellulose/water or 20% cremophor EL/water and dosed p.o. in mice at 50 mg/kg body weight. WT controls received only vehicle. Three hours later, mice were pre-terminally anesthetized in isoflurane chambers and blood was collected by retro-orbital bleeding. Mice were sacrificed by cervical dislocation and spleens, livers and duodena were harvested and used for biomarker analysis. All experiments have been performed in compliance with license approved by the responsible veterinarian authorities. Serum was isolated by centrifugation of blood into gel-containing microtainers (BD Biosciences) and serum iron was determined by the MULTIGENT Iron assay (Abbott Diagnostics, Cat. 6K95). Four to nine mice per group were used and one-way ANOVA with Bonferroni's multiple comparison test was applied to analyze the statistical differences between the experimental groups.
Blood was collected 1 (#) or 3 (##) hours after oral administration of the indicated doses of Fpn inhibitors to beta2-microglobulin deficient mice and serum iron concentrations were measured. Relative reduction (%) of serum iron levels are shown, which were calculated by subtracting the average of serum iron values of animals dosed with the Fpn inhibitor from that of vehicle-treated animals. The difference in average serum iron values between vehicle and compound treated groups was then divided by the average of serum iron of the vehicle control group and listed as percentage.

Assay [2] relates to Hbb th3/+ mice. As to the kind of experiment: Improvement of anemia, ineffective erythropoiesis and iron overload in a mouse model of β-thalassemia intermedia. Type of assay: in vivo. The note with it: hemoglobin difference to vehicle.
The test system of the next assay is naïve WT C57BL/6 mice. As to the kind of experiment: Hypoferremia in naïve mice. The format is in vivo, mouse. The settings on record: Mus musculus, po, 3 h, read-out: Serum Iron Reduction at 3 h (%). As for the experimental part:
Female C57BL/6 mice (Janvier, France) at age of 9 weeks were fed a standard diet (Harlan Provimi Kliba 3436) and treated per os (p.o.) with compounds or the corresponding amount of vehicle at a volume of 10 ml/kg body weight. Fpn inhibitors were formulated in 0.5% methylcellulose/water or 20% cremophor EL/water and dosed p.o. in mice at 10, 30 or 100 mg/kg body weight. Three hours later, mice were pre-terminally anesthetized in isoflurane chambers and blood was collected by retro-orbital bleeding. Mice were sacrificed by cervical dislocation and spleens, livers and duodena were harvested and used for biomarker analysis. All experiments have been conducted in compliance with the license approved by the responsible veterinarian authorities. Serum was isolated by centrifugation of blood into gel-containing microtainers and serum iron was determined by the MULTIGENT Iron assay (Abbott Diagnostics, 6K95). Eight mice per group were used and one-way ANOVA with Bonferroni's multiple comparison test was performed to analyze the statistical differences between the experimental groups.
Relative serum iron reduction at 3 h after dosing was calculated by subtracting the average of serum iron values of animals dosed with the Fpn inhibitor from that of vehicle-treated animals. The difference in average serum iron values between vehicle and compound treated groups was then divided by the average of serum iron of the vehicle control group and listed as percentage.

Marks after values point to notes of the source that are not given here.

For the compound `O=C(NCc1ncccc1F)c1csc(CCNCc2nc3ccccc3[nH]2)n1` [Example 40], the “Decrease in serum erythropoietin” value with Hbb th3/+ mice [1] (20 mg/kg twice daily for 20-46 days) is 6%. Besides, the “Decrease in serum iron” value in the assay with Hbb th3/+ mice [1] (20 mg/kg) was 28%; in the assay with Hbb th3/+ mice [1] (60 mg/kg), 58%. Besides, the “Serum Iron Reduction (%)” value in the assay on b2m−/− mice is 35** %.

For `O=C(NCc1ncccc1F)c1cnc(C2CN(CCc3nc4ccccc4[nH]3)C2)o1` [Example 2], the “Correction of anemia at day 20-48” value is 3 g/L with Hbb th3/+ mice [2] (20 mg/kg twice daily) and 11 g/L with Hbb th3/+ mice [2] (60 mg/kg twice daily).

In the case of `O=C(NCc1ncccc1F)c1cnn(CCNCCc2cc3ccccc3[nH]2)c1` [Example 277], in the assay on naïve WT C57BL/6 mice, the inhibition in vivo at 10 mg/kg was 6%, the inhibition in vivo at 30 mg/kg worked out at 21% and the inhibition in vivo at 100 mg/kg stood at 54%.
